Laboratory results from patent US7205298B2, “Substituted triazine kinase inhibitors” (Janssen Pharmaceutica N.V., priority 2002, dated 2007).

How the values were obtained:
A375 malignant melanoma = assay: Inhibition of cell proliferation, 14C-thymidine incorporation, A375; type: cell-based; settings: Homo sapiens, A-375
Protocol: The ability of a test compound to inhibit the proliferation of cell growth was determined by measuring incorporation of ^14C-labelled thymidine into newly synthesized DNA within the cells. This method was used on cell lines derived from carcinomas originating from several tissues such as HeLa cervical adenocarcinoma (American Type Culture Collection (ATCC), Virginia, Cat. #CCL-2), HCT-116 colon carcinoma (CCL-247), MDA-MB-231 (Xenogen Corp.), PC-3 prostate adenocarcinoma (ATCC CRL-1435) and A375 malignant melanoma (ATCC CRL-1619).
Using this method, the effect of a compound on cell growth of cells with many different phenotypes can be determined. Cells were trypsinized and counted and 3000–8000 cells were added to each well of a 96-well CytoStar tissue culture treated scintillating microplate (Amersham #RPNQ0160) in complete medium in a volume of 100 μl. Cells were incubated for 24 hours in complete medium at 37° C. in an atmosphere containing 5% CO2. 1 μL of test compound in 100% DMSO was then added to the wells of the plate. DMSO only was added to control wells. Cells were incubated for 24 more hours in complete medium at 37° C. in an atmosphere containing 5% CO2. […] The degree of methyl ^14C-thymidine incorporation was quantified on a Packard Top Count.

A375 melanoma xenograft = assay: In vivo inhibition of tumor growth, tumor growth delay method; settings: for MDS to 2.0 g ± SEM (n): A375; for animals survived at day 57: group of six mice; for survival increase: vs control groups
Protocol: The in vivo effect of a compound on the growth of human tumor cells can be evaluated by implanting human tumor cells originating from a variety of different tumor types (such as A375 human melanoma cells) into the hindflank of athymic mice and administering a test compound to the mice.
Female nude mice were implanted subcutaneously with 1 mm^3 A375 melanoma fragments in the flank. Tumors were monitored twice weekly and then daily as the neoplasms reached the desired size range (about 75 mg). […] Estimated tumor weight was calculated using the formula (where w=width and l=length in mm of an A375 melanoma tumor): […]
All treatments were initiated on Day 1 and the study was terminated on Day 57.
The tumor growth delay (TGD) method was used in this study. In the TGD method, each animal was euthanized when its A375 neoplasm reached a size of 2.0 g. Mean Day of Survival (MDS) values were calculated for all groups. The treatment-effected mean “increase in survival” of various groups were compared to each other and to the mean survival times of mice receiving vehicle. The MDS values calculated for each group, based on the calculated day of death of each mouse, is given by the formula:
Time to exceed endpoint (observed)=number of days it takes for each tumor to grow past the endpoint (cut-off) size. Once the tumor reaches the cut-off size, the animal is euthanized. • D2=day animal is euthanized. • D1=last day of caliper measurement before tumor reaches the endpoint. • Wt2=tumor weight (mg) on D2 • Wt1=tumor weight (mg) on D1 • Endpoint weight=predetermined “cut-off” tumor size for the model being used.
Animals were weighed twice weekly during the study. Mice were examined frequently for clinical signs of any adverse, drug-related side effects. Acceptable toxicity for cancer drugs in mice is defined by the NCI as no mean group weight loss of over 20% during the test, and not more than one toxic death among ten treated animals.

EGF-R1 = biological target: T1, EGF-R1 (Homo sapiens, UniProt P00533); assay: Kinase selectivity assay EGF-R1; type: biochemical
T1 construct: purified from human A431 cell membranes; purchased Sigma E3641; host or cells: human A431 cell membranes (endogenous protein)
T1 sequence (P00533 25-1210): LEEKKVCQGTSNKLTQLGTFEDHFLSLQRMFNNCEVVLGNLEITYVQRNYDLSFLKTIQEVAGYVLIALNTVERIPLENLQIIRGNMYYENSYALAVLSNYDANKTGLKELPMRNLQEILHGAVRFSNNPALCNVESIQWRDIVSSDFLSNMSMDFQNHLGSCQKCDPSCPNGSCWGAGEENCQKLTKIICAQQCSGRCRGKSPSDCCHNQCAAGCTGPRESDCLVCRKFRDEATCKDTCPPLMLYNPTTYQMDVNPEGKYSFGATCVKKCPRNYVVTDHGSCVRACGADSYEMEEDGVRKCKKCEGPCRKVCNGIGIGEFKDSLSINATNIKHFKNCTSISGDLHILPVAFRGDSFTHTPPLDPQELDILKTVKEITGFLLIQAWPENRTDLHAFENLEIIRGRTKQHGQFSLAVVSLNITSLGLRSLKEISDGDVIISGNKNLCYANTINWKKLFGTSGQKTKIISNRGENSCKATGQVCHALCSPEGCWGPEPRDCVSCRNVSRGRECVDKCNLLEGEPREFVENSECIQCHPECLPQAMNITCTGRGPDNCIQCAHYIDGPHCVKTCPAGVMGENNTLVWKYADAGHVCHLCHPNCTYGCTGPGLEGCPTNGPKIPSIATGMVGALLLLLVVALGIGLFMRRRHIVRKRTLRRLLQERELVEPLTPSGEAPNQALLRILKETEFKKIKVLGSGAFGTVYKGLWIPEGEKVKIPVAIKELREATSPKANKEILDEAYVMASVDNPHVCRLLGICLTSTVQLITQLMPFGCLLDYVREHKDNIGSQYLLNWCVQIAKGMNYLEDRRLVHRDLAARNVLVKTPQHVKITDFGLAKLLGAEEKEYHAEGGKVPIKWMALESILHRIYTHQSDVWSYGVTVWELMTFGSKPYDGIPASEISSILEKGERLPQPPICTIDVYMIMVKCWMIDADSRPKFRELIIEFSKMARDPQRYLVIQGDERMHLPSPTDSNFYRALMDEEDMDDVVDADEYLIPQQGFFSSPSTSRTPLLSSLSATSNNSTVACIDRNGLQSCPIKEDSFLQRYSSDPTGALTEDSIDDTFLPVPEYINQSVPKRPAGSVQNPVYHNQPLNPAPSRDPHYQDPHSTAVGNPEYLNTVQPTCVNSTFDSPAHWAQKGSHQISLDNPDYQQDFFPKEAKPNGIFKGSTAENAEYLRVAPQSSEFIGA
Protocol: Assays to test compound inhibition of other kinases were preformed using methods that measure the amount of phosphorylation of a biotinylated peptide substrate. Biotinylated peptide substrates were selected from the literature as appropriate for the enzyme being evaluated. […] Assay conditions vary slightly for each protein kinase, for example, insulin receptor kinase requires 10 mM MnCl2 for activity and Calmodulin-dependent protein kinase requires calmodulin and 2 mM CaCl2. The reaction mixture was dispensed into the wells of a streptavidin coated Flashplate and 1 μL test compound in 100% DMSO was added to a 100 μL reaction volume resulting in a final concentration of 1% DMSO in the reaction. Enzyme was diluted in 50 mM Tris-HCl pH=8.0, 0.1% BSA and added to each well. The reaction was incubated for one hour at 30° C. in the presence of a test compound. After one hour the reaction mix was aspirated from the plate and the plate was washed with PBS containing 100 mM EDTA. The plate was read on a scintillation counter to determine ^33P-γ-ATP incorporated into the immobilized peptide substrate. Test compounds were assayed in duplicate at 8 concentrations (100 μM, 10 μM, 1 μM, 100 nM, 10 nM, 1 nM, 100 pM, 10 pM). A maximum and minimum signal for the assay was determined on each plate. […] Known inhibitor compounds appropriate for the kinase being assayed were also included on each plate. […]

SMILES: OCCCNc1cc(-c2ncnc(Nc3cccc(Cl)c3)n2)ccn1 [Compound 2, 3-((4-(4-((3-chlorophenyl)amino)-1,3,5-triazin-2-yl)-2-pyridinyl)amino)-1-propanol]
- IC50 (A375 malignant melanoma): 80 nM
- surviving longer than the PEG vehicle control and Growth Control groups (A375 melanoma xenograft; 100 mg/kg): about 8 days
- Max % BW loss (day) (A375 melanoma xenograft; 100 mg/kg i.p. qd×32): −17.2% (33)
- MDS to 2.0 g ± SEM (n) (A375 melanoma xenograft; 100 mg/kg i.p. qd×32, female nude mice): 29.6 days
- MDS to 2.0 g ± SEM (n) (A375 melanoma xenograft; 100 mg/kg i.p. qd×32, female nude mice, listed as Cpd 2): 29.6 ± 3.1 (6) days
- animals survived at day 57 (A375 melanoma xenograft; 100 mg/kg): None
- survival increase (A375 melanoma xenograft; 100 mg/kg): about 37%
- surviving longer than the PEG vehicle control and Growth Control groups (A375 melanoma xenograft; 125 mg/kg): about 14 days
- Max % BW loss (day) (A375 melanoma xenograft; 125 mg/kg i.p. qd×32): −18.8% (29)
- MDS to 2.0 g ± SEM (n) (A375 melanoma xenograft; 125 mg/kg i.p. qd×32, female nude mice): 35.2 days
- MDS to 2.0 g ± SEM (n) (A375 melanoma xenograft; 125 mg/kg i.p. qd×32, female nude mice, listed as Cpd 2): 35.2 ± 3.6 (5) days
- animals survived at day 57 (A375 melanoma xenograft; 125 mg/kg): One out of six
- survival increase (A375 melanoma xenograft; 125 mg/kg): about 63%
- surviving longer than the PEG vehicle control and Growth Control groups (A375 melanoma xenograft; 150 mg/kg): about 12 days
- Max % BW loss (day) (A375 melanoma xenograft; 150 mg/kg i.p. qd×32): −17.6% (33)
- MDS to 2.0 g ± SEM (n) (A375 melanoma xenograft; 150 mg/kg i.p. qd×32, female nude mice): 33.6 days
- MDS to 2.0 g ± SEM (n) (A375 melanoma xenograft; 150 mg/kg i.p. qd×32, female nude mice, listed as Cpd 2): 33.6 ± 3.0 (4) days
- animals survived at day 57 (A375 melanoma xenograft; 150 mg/kg): One out of six
- survival increase (A375 melanoma xenograft; 150 mg/kg): about 55%
- NCI definition for acceptable toxicity of a cancer drug in mice (A375 melanoma xenograft; 150 and 125 mg/kg dose groups, no mean group weight loss over 20%, not more than one toxic death among ten): satisfied the NCI definition for acceptable toxicity
- efficacy against the A375 melanoma xenograft (A375 melanoma xenograft; high doses of 150 and 125 mg/kg compared): approximately equivalent efficacy

SMILES: OCCCNc1cncc(-c2ncnc(Nc3cccc(Cl)c3)n2)c1 [Compound 1, 3-((5-(4-((3-chlorophenyl)amino)-1,3,5-triazin-2-yl)-3-pyridinyl)amino)-1-propanol]
- IC50 (EGF-R1): > 100000 nM
